Patent US10724044B2, “Reversible genic male sterility in compositae” (priority 2013, dated 2020)
Entries after “also recorded” stand apart in the source; their conditions may differ.

How the values were obtained:
[1] = tested on: homozygous mutant endive plant (Cichorium endivia), having a mutated version of the OPR3 gene; assay: Reversal of male sterility in homozygous OPR3 mutant endive by treating young flower buds; format: in vivo; details: for restoration of male fertility in the F2 generation: F2 of cross of endive plants of the invention with wild type endive, treatment as in Example 3; for flower colour of flowers developed from treated buds: homozygous mutants (pale flowers untreated), about 3.5 months; for flower colour of flowers developed from treated buds / male fertility (functional pollen, seed set through self-pollination): 200 μM (0.2 mM) with 0.025% Zipper surfactant sprayed daily on young flower buds; for male fertility (functional pollen, seed set through self-pollination): homozygous mutants, controls remained male sterile
Excerpt: A mutant endive plant (Cichorium endivia), having a mutated version of the OPR3 gene, was obtained by means of chemical mutagenesis and subsequent TILLING screening of about 10,000 M2 plants.
Phenotypically this mutant endive plant was indistinguishable from wild type endive plants, when the mutation was present in a heterozygous state. […] The pollen grains that developed in such homozygous mutants were unable to germinate and therefore dysfunctional.
Blue was the wild type flower colour in this endive background.

[2] = tested on: homozygous mutant lettuce plant (Lactuca sativa), having a mutated version of the OPR3 gene; assay: Reversal of male sterility in homozygous OPR3 mutant lettuce by spraying young flower buds; format: in vivo; details: for restoration of male fertility in the F2 generation: F2 of cross of NCIMB 42060 plants with wild type lettuce, treatment as in Example 1; for seed production through selfing: 200 μM spray on inflorescences from early bolting stage, versus mock-treated controls (FIG. 1)
Excerpt: A mutant lettuce plant (Lactuca sativa), having a mutated version of the OPR3 gene, was obtained by means of chemical mutagenesis and subsequent TILLING screening of about 3,000 M2 plants.
Phenotypically this mutant lettuce plant was indistinguishable from wild type lettuce plants, when the mutation was present in a heterozygous state. […] The few pollen grains that developed in such homozygous mutants were not functional.
From the early bolting stage the inflorescences were sprayed 5 times per week, for a total of 3 weeks.

[3] = tested on: Arabidopsis thaliana with mutations in the OPR3 gene; details: Arabidopsis OPR3 mutants, flower buds treated; cited from earlier work

SMILES	restoration of male fertility in the F2 generation [1]	flower colour of flowers developed from treated buds [1]	flower colour of flowers developed from treated buds ([1]; listed as MeJA)	male fertility (functional pollen, seed set through self-pollination) [1]	male fertility (functional pollen, seed set through self-pollination) ([1]; listed as MeJA)	effect of other application methods than spraying ([1]; solution painted onto the surface of young flower buds with a fine brush)	restoration of male fertility in the F2 generation [2]	restoration of male fertility ([2]; homozygous mutants, 200 μM (0.2 mM) aqueous solution plus 0.025% Zipper surfactant sprayed on young flower buds, 5 times per week for 3 weeks)	seed production through selfing ([2]; homozygous mutants)	seed production through selfing ([2]; homozygous mutants, listed as MeJA)	restoration of male fertility [3]
CC/C=C\CC1C(=O)CCC1CC(=O)OC (centres unmarked) [methyl jasmonate]	sufficient to restore male fertility	Its colour has changed to blue	developed into blue flowers	it has become male-fertile	produced viable, functional pollen and were able to set seed through self-pollination; also recorded: could be overcome	comparable effects	sufficient to restore male fertility	sufficient to restore male fertility	has produced seeds through selfing	produced seeds in a subset of their flowers	could be restored
CC/C=C\C[C@H]1C(=O)CC[C@@H]1CC(=O)O [jasmonic acid, (3R,7S)-jasmonic acid]	sufficient to restore male fertility			had the same effect			sufficient to restore male fertility				
